The record followed here is ChEMBL document CHEMBL1145450, “Platinum complexes can inhibit matrix metalloproteinase activity: platinum-diethyl[(methylsulfinyl)methyl]phosphonate complexes as inhibitors of matrix metalloproteinases 2, 3, 9, and 12” (J Med Chem, 2007).

Assay [1] deals with Macrophage metalloelastase (Homo sapiens, UniProt P39900). Kind of assay: Inhibition of human recombinant MMP12 after 1 hr.
Assay [2] addresses Stromelysin-1 (Homo sapiens, UniProt P08254). Nature of the assay: Inhibition of human recombinant MMP3 after 1 hr.
Assay [3] addresses Matrix metalloproteinase-9 (Homo sapiens, UniProt P14780). Nature of the assay: Inhibition of human recombinant MMP9 after 1 hr.
For assay [4], the target named is 72 kDa type IV collagenase (Homo sapiens, UniProt P08253). Nature of the assay: Inhibition of human recombinant MMP2 after 1 hr.
Chain of 72 kDa type IV collagenase (P08253 whole entry): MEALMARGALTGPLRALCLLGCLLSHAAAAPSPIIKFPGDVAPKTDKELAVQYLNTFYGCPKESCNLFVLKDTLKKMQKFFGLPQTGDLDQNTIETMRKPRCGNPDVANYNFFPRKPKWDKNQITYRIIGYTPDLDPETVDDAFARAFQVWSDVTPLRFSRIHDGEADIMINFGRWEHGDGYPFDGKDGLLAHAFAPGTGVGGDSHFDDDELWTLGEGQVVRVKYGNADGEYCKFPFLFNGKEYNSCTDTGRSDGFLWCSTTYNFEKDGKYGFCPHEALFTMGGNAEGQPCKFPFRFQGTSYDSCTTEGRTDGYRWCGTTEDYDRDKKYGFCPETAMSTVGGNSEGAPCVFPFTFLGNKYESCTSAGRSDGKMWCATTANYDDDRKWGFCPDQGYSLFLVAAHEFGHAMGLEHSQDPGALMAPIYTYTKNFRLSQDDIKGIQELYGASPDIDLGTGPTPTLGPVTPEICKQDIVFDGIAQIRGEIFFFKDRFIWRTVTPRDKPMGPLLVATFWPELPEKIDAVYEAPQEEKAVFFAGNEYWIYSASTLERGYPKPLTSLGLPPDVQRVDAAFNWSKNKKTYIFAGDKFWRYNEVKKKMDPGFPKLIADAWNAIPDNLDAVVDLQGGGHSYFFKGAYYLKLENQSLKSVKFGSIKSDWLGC

pIC50: −log10 of the molar value.

Chain of Matrix metalloproteinase-9 (P14780 whole entry): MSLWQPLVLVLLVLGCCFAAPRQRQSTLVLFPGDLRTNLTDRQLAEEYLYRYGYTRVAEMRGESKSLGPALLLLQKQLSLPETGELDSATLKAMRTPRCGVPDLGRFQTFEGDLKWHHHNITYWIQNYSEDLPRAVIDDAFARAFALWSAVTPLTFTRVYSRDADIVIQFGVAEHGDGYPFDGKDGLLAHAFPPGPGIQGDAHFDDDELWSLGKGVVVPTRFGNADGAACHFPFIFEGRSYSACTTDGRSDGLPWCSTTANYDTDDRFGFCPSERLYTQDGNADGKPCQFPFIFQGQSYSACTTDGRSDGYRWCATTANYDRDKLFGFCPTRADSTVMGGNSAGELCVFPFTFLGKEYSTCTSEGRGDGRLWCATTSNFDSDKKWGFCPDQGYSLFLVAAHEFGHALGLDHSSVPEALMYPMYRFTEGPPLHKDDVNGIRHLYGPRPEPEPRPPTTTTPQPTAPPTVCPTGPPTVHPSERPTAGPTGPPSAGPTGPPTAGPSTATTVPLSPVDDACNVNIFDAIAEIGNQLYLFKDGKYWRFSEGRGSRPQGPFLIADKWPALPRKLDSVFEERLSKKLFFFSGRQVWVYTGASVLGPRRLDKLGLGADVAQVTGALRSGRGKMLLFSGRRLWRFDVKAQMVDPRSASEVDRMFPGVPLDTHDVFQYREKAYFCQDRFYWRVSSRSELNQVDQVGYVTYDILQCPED
Chain of Stromelysin-1 (P08254 whole entry): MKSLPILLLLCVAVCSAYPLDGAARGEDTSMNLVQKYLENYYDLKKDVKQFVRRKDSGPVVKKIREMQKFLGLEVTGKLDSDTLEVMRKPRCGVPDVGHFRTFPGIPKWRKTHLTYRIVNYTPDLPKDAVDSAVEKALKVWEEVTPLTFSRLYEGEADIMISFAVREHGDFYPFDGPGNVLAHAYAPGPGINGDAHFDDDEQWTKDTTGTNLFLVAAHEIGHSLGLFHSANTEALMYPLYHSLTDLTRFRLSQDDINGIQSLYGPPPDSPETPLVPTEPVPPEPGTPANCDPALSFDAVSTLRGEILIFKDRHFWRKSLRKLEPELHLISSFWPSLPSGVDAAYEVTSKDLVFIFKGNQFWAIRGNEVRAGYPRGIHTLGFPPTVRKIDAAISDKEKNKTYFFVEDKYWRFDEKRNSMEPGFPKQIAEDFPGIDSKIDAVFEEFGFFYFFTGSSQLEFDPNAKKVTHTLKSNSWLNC
Chain of Macrophage metalloelastase (P39900 whole entry): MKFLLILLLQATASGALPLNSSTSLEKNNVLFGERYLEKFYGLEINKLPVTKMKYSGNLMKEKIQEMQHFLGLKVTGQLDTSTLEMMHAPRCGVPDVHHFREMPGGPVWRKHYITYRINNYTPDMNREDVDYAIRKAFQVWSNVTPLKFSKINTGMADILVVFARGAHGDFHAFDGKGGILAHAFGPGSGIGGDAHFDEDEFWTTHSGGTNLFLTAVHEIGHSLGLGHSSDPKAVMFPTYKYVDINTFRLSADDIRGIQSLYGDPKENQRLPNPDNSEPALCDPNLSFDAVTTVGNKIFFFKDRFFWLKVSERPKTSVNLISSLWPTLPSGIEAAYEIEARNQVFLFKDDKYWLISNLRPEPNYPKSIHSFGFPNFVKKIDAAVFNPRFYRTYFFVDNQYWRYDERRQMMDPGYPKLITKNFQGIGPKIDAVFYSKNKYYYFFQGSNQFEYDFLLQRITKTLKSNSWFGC

In the case of `O=P(O)(O)C(Cl)(Cl)P(=O)(O)O` [CLODRONIC ACID], the negative logarithm of the IC50 (pIC50) is 3.92 in assay [1], 3.52 in assay [2], 3.49 in assay [3] and 3.84 in assay [4].
